Test results: the supplement of paper PMC10307832

How the values were obtained:
Assay in all cases: relative viability (nuclei count vs DMSO), 5 days (fraction); higher = more cells survive
[1] = compound: CS(=O)(=O)CCNCc1ccc(-c2ccc3ncnc(Nc4ccc(OCc5cccc(F)c5)c(Cl)c4)c3c2)o1 [Lapatinib] + O=C(c1cc(Cc2n[nH]c(=O)c3ccccc23)ccc1F)N1CCN(C(=O)C2CC2)CC1 [Olaparib] (partner 8 µM)
Outline: (§1)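 A single step with final 0.05% Triton X-100, 1% formaldehyde and 1 ug/ml Hoechst fixed the cells and stained nuclei 5 days after treatment. Lung cancer cell lines in 1536-well plates had been treated by pin tool the day after seeding with one drug alone or a fixed anchor-drug dose plus five library-drug doses (not always all listed) in √10 steps, and nuclei were counted on 4× images. Relative viability is the ratio of nuclei in treated wells to nuclei in vehicle wells, taken as the median of duplicate plates.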

[2] = compound: CS(=O)(=O)CCNCc1ccc(-c2ccc3ncnc(Nc4ccc(OCc5cccc(F)c5)c(Cl)c4)c3c2)o1 [Lapatinib] + COc1cccc2cc(-c3nc([C@H]4CC[C@H](C(=O)O)CC4)n4ncnc(N)c34)[nH]c12 [OSI-027] (partner 0.5 µM)
Outline: as §1

[3] = compound: CS(=O)(=O)CCNCc1ccc(-c2ccc3ncnc(Nc4ccc(OCc5cccc(F)c5)c(Cl)c4)c3c2)o1 [Lapatinib] + CC(=O)Nc1cccc(-n2c(=O)n(C3CC3)c(=O)c3c(Nc4ccc(I)cc4F)n(C)c(=O)c(C)c32)c1 [Trametinib] (partner 0.02 µM)
Outline: as §1

[4] = compound: CS(=O)(=O)CCNCc1ccc(-c2ccc3ncnc(Nc4ccc(OCc5cccc(F)c5)c(Cl)c4)c3c2)o1 [Lapatinib] + Cc1nc(NC(=O)N2CCC[C@H]2C(N)=O)sc1-c1ccnc(C(C)(C)C(F)(F)F)c1 [Alpelisib] (partner 2 µM)
Outline: as §1

| Cell Line | relative viability ([1]; first compound 0.2 µM) | relative viability ([1]; first compound 0.6325 µM) | relative viability ([1]; first compound 2 µM) | relative viability ([2]; first compound 0.02 µM) | relative viability ([2]; first compound 0.2 µM) | relative viability ([2]; first compound 0.6325 µM) | relative viability ([2]; first compound 2 µM) | relative viability ([3]; first compound 0.2 µM) | relative viability ([3]; first compound 0.6325 µM) | relative viability ([3]; first compound 2 µM) | relative viability ([4]; first compound 0.02 µM) | relative viability ([4]; first compound 0.06325 µM) | relative viability ([4]; first compound 0.2 µM) | relative viability ([4]; first compound 0.6325 µM) | relative viability ([4]; first compound 2 µM) | relative viability ([1]; first compound 0.02 µM) | relative viability ([1]; first compound 0.06325 µM) | relative viability ([2]; first compound 0.06325 µM) | relative viability ([3]; first compound 0.02 µM) | relative viability ([3]; first compound 0.06325 µM) |
| --- | --- | --- | --- | --- | --- | --- | --- | --- | --- | --- | --- | --- | --- | --- | --- | --- | --- | --- | --- | --- |
| NCI-H1792 | 0.377 | 0.342 | 0.351 | 0.665 | 0.558 | 0.533 | 0.31 | 0.402 | 0.457 | 0.352 | 0.723 | 0.633 | 0.75 | 0.666 | 0.576 |  |  |  |  |  |
| NCI-H661 | 0.708 | 0.631 | 0.545 | 0.654 | 0.545 | 0.495 | 0.424 | 0.549 | 0.432 | 0.388 | 0.646 | 0.637 | 0.468 | 0.45 | 0.36 | 0.663 | 0.72 | 0.322 | 0.509 | 0.536 |
| NCI-H1915 | 0.275 | 0.243 | 0.237 |  | 0.629 | 0.607 | 0.619 | 0.3 | 0.292 | 0.304 |  | 1.05 | 1.08 | 1.03 | 1.02 |  | 0.277 | 0.601 |  | 0.29 |
| EPLC-272H | 0.767 | 0.614 | 0.527 |  | 0.256 | 0.227 | 0.224 | 0.281 | 0.246 | 0.293 |  | 0.807 | 0.819 | 0.746 | 0.821 | 0.7 | 0.544 |  |  | 0.25 |
| NCI-H3122 | 0.595 | 0.627 | 0.558 |  | 0.962 | 0.902 | 0.893 | 0.207 | 0.218 | 0.248 | 0.714 | 0.725 | 0.752 | 0.691 | 0.771 | 0.582 | 0.576 | 0.556 | 0.256 | 0.203 |
| EMC-BAC-2 | 0.56 | 0.537 | 0.528 | 0.339 | 0.377 | 0.392 | 0.346 |  | 0.83 | 0.789 | 0.72 | 0.652 | 0.694 | 0.622 | 0.592 |  | 0.447 | 0.277 |  | 0.526 |
| NCI-H1734 | 0.62 | 0.593 | 0.586 | 0.615 | 0.579 | 0.721 | 0.507 | 0.626 | 0.691 | 0.721 |  | 0.489 | 0.653 | 0.736 | 0.657 |  | 0.54 | 0.375 |  | 0.548 |
| LC-2-ad | 0.704 | 0.675 | 0.694 |  | 0.767 | 0.764 | 0.619 | 0.906 | 0.864 | 0.837 |  | 0.796 | 0.856 | 0.877 | 0.73 |  | 0.796 | 0.49 |  | 0.804 |
| SW 1573 | 0.519 | 0.444 | 0.522 | 0.626 | 0.612 | 0.735 | 0.635 | 0.527 | 0.606 | 0.515 | 0.705 | 0.648 | 0.635 | 0.821 | 0.843 | 0.401 | 0.443 | 0.379 |  | 0.577 |
| HCC-827 | 0.533 | 0.678 | 0.549 | 0.54 | 0.691 | 0.71 | 0.661 | 0.536 | 0.517 | 0.408 | 0.89 | 0.957 | 0.957 | 0.914 | 0.434 | 0.591 | 0.656 | 0.7 | 0.479 | 0.487 |
| 201T | 0.858 | 0.833 | 0.778 | 0.794 | 0.597 | 0.807 | 0.703 | 0.694 | 0.726 | 0.651 | 0.998 | 0.834 | 0.993 | 1 | 0.943 | 0.85 | 0.848 | 0.598 | 0.735 | 0.719 |
| HCC-15 | 0.689 | 0.659 | 0.621 |  | 0.682 | 0.727 | 0.612 | 0.386 | 0.312 | 0.341 |  | 0.799 | 0.843 | 0.857 | 0.797 |  | 0.706 | 0.386 |  | 0.243 |
| NCI-H2347 | 0.598 | 0.629 | 0.527 |  | 0.462 | 0.44 | 0.366 | 0.278 | 0.302 | 0.281 | 0.901 | 1.01 | 1.07 | 0.844 | 1.02 | 0.636 | 0.568 | 0.266 | 0.298 | 0.236 |
| NCI-H596 | 0.713 | 0.679 | 0.567 |  | 0.566 | 0.671 | 0.416 | 0.777 | 0.854 | 0.617 | 0.481 | 0.48 | 0.425 | 0.554 | 0.446 |  | 0.578 | 0.52 |  | 0.745 |
| LXF-289 | 1.04 | 1.04 | 0.998 | 0.16 | 0.796 | 0.714 | 0.723 | 0.68 | 0.652 | 0.631 | 0.987 | 1.04 | 1.06 | 0.987 | 0.922 | 1.06 | 0.97 | 0.477 | 0.713 | 0.689 |
| NCI-H1755 | 0.885 | 0.882 | 0.815 | 0.423 | 0.653 | 0.696 | 0.697 | 0.792 | 0.793 | 0.717 | 0.906 | 0.873 | 0.915 | 0.888 | 0.789 | 0.855 | 0.837 | 0.567 | 0.77 | 0.729 |
| NCI-H2405 |  | 0.854 | 0.754 | 0.441 | 0.655 | 0.649 | 0.604 |  | 0.52 | 0.438 |  | 0.609 | 0.733 | 0.781 | 0.689 |  | 0.763 | 0.382 |  | 0.409 |
| NCI-H2170 | 0.501 | 0.459 | 0.118 | 0.459 | 0.64 | 0.41 | 0.245 | 0.792 | 0.683 | 0.238 | 0.76 | 0.551 | 0.477 | 0.376 | 0.21 | 0.564 | 0.483 | 0.459 | 0.874 | 0.82 |
